Assay results: PubChem BioAssay (NCI)
Values joined by “and” are separate entries in the source; they are usually repeats but may differ in a detail not shown here. Equal entries are not always repeated.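 Test compounds were applied to cells in 96-well plates for 48 hours at 5 doses. The concentration for 50% growth inhibition is given as GI50. TGI: concentration producing complete growth inhibition.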

How the values were obtained:
Assay in all cases: inhibition of tumour cell growth, NCI panel, 48 h
IGROV1 ovarian = test system: IGROV1 ovarian
HOP-62 NSCLC = test system: HOP-62 NSCLC
EKVX NSCLC = test system: EKVX NSCLC
UACC-257 melanoma = test system: UACC-257 melanoma
NCI-H460 lung = test system: NCI-H460 lung
UACC-62 melanoma = test system: UACC-62 melanoma
SK-OV-3 ovarian = test system: SK-OV-3 ovarian
SW-620 colon = test system: SW-620 colon
UO-31 renal = test system: UO-31 renal
M14 melanoma = test system: M14 melanoma

Row | SMILES | TGI (IGROV1 ovarian) | TGI (HOP-62 NSCLC) | TGI (EKVX NSCLC) | TGI (UACC-257 melanoma) | TGI (NCI-H460 lung) | TGI (UACC-62 melanoma) [µM] | TGI (SK-OV-3 ovarian) [µM] | TGI (SW-620 colon) [µM] | TGI (UO-31 renal) | TGI (M14 melanoma) | GI50 (IGROV1 ovarian) [µM] | GI50 (HOP-62 NSCLC) [µM] | GI50 (EKVX NSCLC) [µM] | GI50 (UACC-257 melanoma) [µM] | GI50 (UO-31 renal) [µM] | GI50 (M14 melanoma) [µM]
1 | C/C(=N/O)c1cccc(Nc2nc3ccccc3c3[nH]c4ccccc4c23)c1 | 13.3 µM | 8.83 µM | 7.38 µM | 17.6 µM | 4.74 µM | 4.65 | 22.1 | 19.4 | 12 µM | 6.3 µM | – | – | – | – | – | –
2 | NC1CCC(c2cc3ccccc3s2)(N2CCCCC2)CC1 (stereo unspecified) | 3.26 µM | 4.5 µM | 11.9 µM | 3.44 µM | 3.06 µM | 6.25 | 22.6 | 3.2 | 5.94 µM | 2.88 µM | – | – | – | – | – | –
3 | COc1cccc2c1C1=CC(=O)CCC1C(C)(C)O2 (stereo unspecified) | > 100 µM | > 100 µM | > 100 µM | > 100 µM | > 100 µM | > 100 | > 100 | 27.3 | > 100 µM | > 100 µM | – | – | – | – | – | –
4 | O=[N+]([O-])C(=C(NCc1ccccc1)NCc1ccccc1)C(Cl)=C(Cl)Cl | > 100 µM | > 100 µM | > 100 µM | 82.4 µM | > 100 µM | 98.7 | > 100 | > 100 | > 100 µM | 75.8 µM | – | – | – | – | – | –
5 | Fc1cccc2nc(-c3ccccc3)cc(OCc3ccccc3)c12 | > 100 µM | > 100 µM | > 100 µM | > 100 µM | > 100 µM | > 100 | > 100 | > 100 | > 100 µM | > 100 µM | – | – | – | – | – | –
6 | O=C1CSC2(CCN(CCCN3c4ccccc4Sc4ccc(Cl)cc43)CC2)N1 | 20.8 µM | 25.5 µM | 22.7 µM | 22 µM | 15.2 µM | 23.7 | 21.5 | 23.6 | 19.5 µM | 20.6 µM | – | – | – | – | – | –
7 | CC1=Nn2c(nc3sc4c(c3c2=O)CCCC4)SC1 | > 100 µM | > 100 µM | > 100 µM | > 100 µM | > 100 µM | > 100 | > 100 | > 100 | > 100 µM | > 100 µM | – | – | – | – | – | –
8 | COC1C(O)=C2C(=O)OC(C)(O)/C=C/C=C\C=C/C=C/C(c3ccccc3)NC(=O)/C=C/C=C/C=C/C=C/C2(C)C1O (stereo unspecified) | 0.15 µM and 0.168 µM | 0.212 µM and 0.193 µM | 0.122 µM and 0.237 µM | 0.17 µM and 0.31 µM | 0.0149 µM and 0.131 µM | 0.258 | 0.134 | 0.0498 | 0.0846 µM and 0.175 µM | 0.447 µM and 0.19 µM | 0.0303 | 0.041 | 0.0624 | 0.0838 | 0.0252 | 0.0536
9 | Cc1ccc(-n2c(C)nc3c2C(=O)c2ccccc2C3=O)cc1 | > 100 µM | > 100 µM | > 100 µM | 57 µM | 19.5 µM | 56.6 | > 100 | > 100 | > 100 µM | > 100 µM | – | – | – | – | – | –
10 | CC(=O)Nc1ccc(Nc2nc(=O)[nH]c(=O)[nH]2)cc1 | > 100 µM | > 100 µM | > 100 µM | > 100 µM | > 100 µM | > 100 | > 100 | > 100 | > 100 µM | > 100 µM | – | – | – | – | – | –
11 | COc1cccc(C2c3cc4c(cc3OC(N3CCOCC3)C2C)OCO4)c1O (stereo unspecified) | 53.7 µM | 26 µM | 98.9 µM | > 83.3 µM | 20.4 µM | 40.2 | 75.6 | > 75.2 | 54.3 µM | 25 µM | – | – | – | – | – | –
12 | COc1cccc(-c2cc(=O)c3cc(C)cnc3[nH]2)c1 | > 100 µM | > 100 µM | > 100 µM | > 100 µM | > 100 µM | > 100 | > 100 | > 100 | 3.59 µM | > 69.6 µM | – | – | – | – | – | –
13 | c1ccc2c(c1)SC1Sc3ccccc3[S+]21 (stereo unspecified) | 50.5 µM | > 100 µM | 52.5 µM | 33.8 µM | > 70.7 µM | 37.4 | > 100 | > 76.7 | 50.9 µM | 87.7 µM | – | – | – | – | – | –
14 | NC(=O)c1ccccc1NC(=O)C(=O)C(c1cnc2ccc([N+](=O)[O-])cc2n1)[N+](=O)[O-] (stereo unspecified) | > 100 µM | > 100 µM | > 100 µM | > 100 µM | > 100 µM | > 100 | > 100 | > 100 | > 100 µM | > 100 µM | – | – | – | – | – | –
15 | Cn1c(N/N=C/c2ccc(Cl)cc2)nc(-c2ccc(Cl)cc2)c(C#N)c1=O | 25.6 µM | 25.1 µM | 68.4 µM | > 100 µM | > 100 µM | 48.4 | > 100 | > 100 | 33 µM | 42 µM | – | – | – | – | – | –
16 | CC(=O)O[C@H]1/C(=C/c2ccc(N(C)C)cc2)C[C@H]2[C@@H]3CC=C4C[C@@H](N5CCCC5)CC[C@]4(C)[C@H]3CC[C@]12C | > 100 µM | > 100 µM | > 100 µM | > 100 µM | > 100 µM | > 100 | > 100 | > 100 | > 100 µM | > 100 µM | – | – | – | – | – | –
17 | CCN(CC)C(=O)CCCCCCCCC1CO1 (stereo unspecified) | > 100 µM | > 100 µM | > 100 µM | > 100 µM | > 100 µM | > 100 | > 100 | > 100 | > 100 µM | > 100 µM | – | – | – | – | – | –
